We go through 1 compound from BindingDB's records for doi:10.1016/j.ejmech.2018.04.062 (Lindsley F. Kimball Research Institute, 2018).

Broadly, the IC50 is the point on the concentration scale where inhibition reaches its midpoint.

Data set [1] has as its target T1, Cytochrome P450 1A2 (Homo sapiens, UniProt P05177).
T1 sequence (P05177 whole entry): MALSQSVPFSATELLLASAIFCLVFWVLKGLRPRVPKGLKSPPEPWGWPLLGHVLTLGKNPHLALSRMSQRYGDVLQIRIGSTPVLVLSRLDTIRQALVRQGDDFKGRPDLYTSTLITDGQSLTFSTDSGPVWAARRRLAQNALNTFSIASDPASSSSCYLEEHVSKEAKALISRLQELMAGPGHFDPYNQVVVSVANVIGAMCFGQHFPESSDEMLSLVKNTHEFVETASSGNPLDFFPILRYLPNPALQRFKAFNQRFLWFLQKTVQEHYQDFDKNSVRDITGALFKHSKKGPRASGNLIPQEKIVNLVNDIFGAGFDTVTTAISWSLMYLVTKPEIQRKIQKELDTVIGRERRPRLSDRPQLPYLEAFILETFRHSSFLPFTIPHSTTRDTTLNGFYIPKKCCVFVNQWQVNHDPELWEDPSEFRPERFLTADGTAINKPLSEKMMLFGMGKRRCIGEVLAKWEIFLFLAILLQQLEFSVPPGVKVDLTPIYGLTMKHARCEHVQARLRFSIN
Description: Inhibition of human liver microsome CYP1A2 using phenacetin as substrate incubated for 20 mins by LC-MS/MS analysis. On the technique in general: Liver microsomes are vesicles of endoplasmic reticulum, rich in cytochrome P450 enzymes.

The target of data set [2] is Cytochrome P450 2C9 (Homo sapiens, UniProt P11712). In words: Inhibition of human liver microsome CYP2C9 using diclofenac as substrate incubated for 20 mins by LC-MS/MS analysis.
Data set [3] addresses Potassium voltage-gated channel subfamily H member 2 (Homo sapiens, UniProt Q12809). In words: Inhibition of human ERG transfected in HEK293 cells assessed as reduction in channel current at -80 mV holding potential by whole-cell patch clamp method.
Data set [4] concerns the target T2, Cytochrome P450 2C8 (Homo sapiens, UniProt P10632).
T2 sequence (P10632 whole entry): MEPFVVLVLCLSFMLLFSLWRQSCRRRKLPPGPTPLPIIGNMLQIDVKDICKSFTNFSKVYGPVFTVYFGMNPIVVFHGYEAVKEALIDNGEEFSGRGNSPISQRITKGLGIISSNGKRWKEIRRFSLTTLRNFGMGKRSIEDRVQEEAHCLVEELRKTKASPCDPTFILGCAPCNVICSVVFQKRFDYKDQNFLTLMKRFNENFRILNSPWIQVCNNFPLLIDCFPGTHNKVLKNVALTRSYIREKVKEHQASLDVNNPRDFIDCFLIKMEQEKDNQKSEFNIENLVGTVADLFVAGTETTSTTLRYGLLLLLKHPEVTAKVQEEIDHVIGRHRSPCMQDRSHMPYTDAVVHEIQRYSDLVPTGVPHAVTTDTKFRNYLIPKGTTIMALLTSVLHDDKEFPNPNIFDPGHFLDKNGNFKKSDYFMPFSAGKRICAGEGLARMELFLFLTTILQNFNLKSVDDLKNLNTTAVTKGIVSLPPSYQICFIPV
Description: Inhibition of human liver microsome CYP2C8 using paclitaxel as substrate incubated for 20 mins by LC-MS/MS analysis.

Data set [5] addresses Cytochrome P450 2D6 (Homo sapiens, UniProt P10635). In words: Inhibition of human liver microsome CYP2D6 using bufuralol as substrate incubated for 20 mins by LC-MS/MS analysis.

Sequence of Cytochrome P450 2D6 (P10635 whole entry): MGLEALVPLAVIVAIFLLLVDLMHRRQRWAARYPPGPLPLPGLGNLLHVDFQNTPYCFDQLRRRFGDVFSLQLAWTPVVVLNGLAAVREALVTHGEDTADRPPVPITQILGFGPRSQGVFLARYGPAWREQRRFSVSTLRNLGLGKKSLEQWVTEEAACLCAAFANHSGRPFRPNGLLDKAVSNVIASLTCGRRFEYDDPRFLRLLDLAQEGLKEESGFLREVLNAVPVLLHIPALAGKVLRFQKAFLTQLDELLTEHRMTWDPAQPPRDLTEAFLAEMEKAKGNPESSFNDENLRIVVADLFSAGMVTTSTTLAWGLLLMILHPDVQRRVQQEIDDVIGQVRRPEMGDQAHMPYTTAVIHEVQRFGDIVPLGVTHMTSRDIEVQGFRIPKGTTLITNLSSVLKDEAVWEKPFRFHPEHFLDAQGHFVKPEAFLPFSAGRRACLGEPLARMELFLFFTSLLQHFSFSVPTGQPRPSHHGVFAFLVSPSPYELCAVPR
Sequence of Cytochrome P450 2C9 (P11712 whole entry): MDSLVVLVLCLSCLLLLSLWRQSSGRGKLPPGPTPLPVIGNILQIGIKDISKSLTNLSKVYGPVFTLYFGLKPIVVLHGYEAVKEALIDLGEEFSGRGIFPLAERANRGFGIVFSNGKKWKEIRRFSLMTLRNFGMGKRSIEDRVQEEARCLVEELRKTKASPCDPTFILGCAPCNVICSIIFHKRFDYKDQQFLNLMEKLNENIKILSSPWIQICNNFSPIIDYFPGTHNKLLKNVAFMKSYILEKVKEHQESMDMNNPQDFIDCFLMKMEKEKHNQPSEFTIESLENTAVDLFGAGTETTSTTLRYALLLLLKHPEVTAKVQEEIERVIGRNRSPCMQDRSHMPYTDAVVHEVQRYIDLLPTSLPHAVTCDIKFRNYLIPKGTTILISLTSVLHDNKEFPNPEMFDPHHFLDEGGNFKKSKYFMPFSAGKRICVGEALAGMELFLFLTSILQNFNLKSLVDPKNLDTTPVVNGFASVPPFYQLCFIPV
Sequence of Potassium voltage-gated channel subfamily H member 2 (Q12809 whole entry): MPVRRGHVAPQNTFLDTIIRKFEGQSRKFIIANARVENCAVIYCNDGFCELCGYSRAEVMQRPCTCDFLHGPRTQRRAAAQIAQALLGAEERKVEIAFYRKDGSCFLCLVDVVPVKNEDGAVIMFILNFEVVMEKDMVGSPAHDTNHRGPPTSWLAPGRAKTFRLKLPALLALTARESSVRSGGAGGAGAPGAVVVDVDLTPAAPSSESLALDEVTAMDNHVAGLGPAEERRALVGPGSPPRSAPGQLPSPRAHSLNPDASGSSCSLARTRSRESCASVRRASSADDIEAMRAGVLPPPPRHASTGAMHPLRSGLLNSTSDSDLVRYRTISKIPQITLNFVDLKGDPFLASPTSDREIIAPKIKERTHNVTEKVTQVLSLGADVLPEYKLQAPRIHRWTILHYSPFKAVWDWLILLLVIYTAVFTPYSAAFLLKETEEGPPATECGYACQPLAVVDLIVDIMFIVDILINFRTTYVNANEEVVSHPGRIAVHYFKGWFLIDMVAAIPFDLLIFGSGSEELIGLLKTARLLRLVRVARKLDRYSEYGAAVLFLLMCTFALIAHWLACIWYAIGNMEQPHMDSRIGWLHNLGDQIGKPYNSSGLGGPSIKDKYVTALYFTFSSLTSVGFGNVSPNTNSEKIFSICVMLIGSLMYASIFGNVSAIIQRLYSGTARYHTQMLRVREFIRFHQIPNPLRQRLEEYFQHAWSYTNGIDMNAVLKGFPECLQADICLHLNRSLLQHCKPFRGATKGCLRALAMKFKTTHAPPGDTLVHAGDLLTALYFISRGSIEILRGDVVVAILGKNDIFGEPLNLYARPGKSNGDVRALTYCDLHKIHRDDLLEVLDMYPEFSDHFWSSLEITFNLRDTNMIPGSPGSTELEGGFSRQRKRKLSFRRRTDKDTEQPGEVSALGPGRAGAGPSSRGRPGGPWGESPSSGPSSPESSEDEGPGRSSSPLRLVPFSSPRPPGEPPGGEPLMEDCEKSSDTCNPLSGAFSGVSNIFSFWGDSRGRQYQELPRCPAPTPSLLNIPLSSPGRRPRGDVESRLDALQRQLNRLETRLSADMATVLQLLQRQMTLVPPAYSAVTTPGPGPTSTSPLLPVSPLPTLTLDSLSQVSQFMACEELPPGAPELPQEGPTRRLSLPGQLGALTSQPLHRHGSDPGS

`NC[C@H](NC(=O)c1ccc(-c2ccc(C(F)(F)F)c(F)c2)[nH]1)c1nc(CO)cs1`: the IC50 in data set [1] is greater than 25 µM; in data set [2] it was greater than 25 µM; in data set [3] it was 3 µM; in data set [4], greater than 25 µM; in data set [5], greater than 25 µM.
